Values of other authors, collected in patent publication US20130280348A1, “Carbon dioxide and saline nasal delivery methods and treatments” (Glynn Tech, Inc., priority 2012, published 2013).

What was measured:
[1] = test system: nasal allergen challenge (grass or ragweed allergen) in subjects with SAR
[2] = test system: seasonal allergic rhinitis (SAR); details: intranasal

Question: What does the source list for `O=C=O` [CO(2), carbon dioxide]?
Answer: histamine levels in ipsilateral nasal secretions ([1]; after pretreatment with CO(2), increased significantly with sham treatment): did not increase; ipsilateral secretion weights ([1]; compared with no treatment): numerically reduced; sneezes ([1]; compared with no treatment, 12 subjects with SAR, 20-second CO(2) exposure 30 minutes before challenge, p=0.05): significant reduction; bilateral runny nose symptoms ([1]; compared with no treatment, p=0.01): significant reduction; contralateral secretion weights (reflex secretory response to allergen, primary outcome) ([1]; compared with no treatment, p=0.04): significant reduction; sensation reported by subjects during exposure ([1]; during 20-second exposure to CO(2)): transient burning sensation; acute response to allergen challenge ([1]; treatment with nasal CO(2)): partial reduction; reflex responses ([1]; treatment with nasal CO(2)): reduced; symptoms of seasonal allergic rhinitis (SAR) [2]: reduce symptoms
